Source: PMC10349806 (Nature Communications, 2023)
Where “and” joins values, the source holds several entries; their conditions need not be identical. Identical values can stand only once.

Columns and labels:
[1] = molecular target: T1, PfCRT variant Y89A (Plasmodium falciparum, UniProt Q9N623, A220S/I356T/K76T/M74I/N326S/N75E/Q271E/R371I/Y89A); assay: CQ uptake assay, oocytes expressing Y89A; assay type: cell-based
T1 sequence (Q9N623 1-424 M74I/N75E/K76T/Y89A/A220S/Q271E/N326S/I356T/R371I): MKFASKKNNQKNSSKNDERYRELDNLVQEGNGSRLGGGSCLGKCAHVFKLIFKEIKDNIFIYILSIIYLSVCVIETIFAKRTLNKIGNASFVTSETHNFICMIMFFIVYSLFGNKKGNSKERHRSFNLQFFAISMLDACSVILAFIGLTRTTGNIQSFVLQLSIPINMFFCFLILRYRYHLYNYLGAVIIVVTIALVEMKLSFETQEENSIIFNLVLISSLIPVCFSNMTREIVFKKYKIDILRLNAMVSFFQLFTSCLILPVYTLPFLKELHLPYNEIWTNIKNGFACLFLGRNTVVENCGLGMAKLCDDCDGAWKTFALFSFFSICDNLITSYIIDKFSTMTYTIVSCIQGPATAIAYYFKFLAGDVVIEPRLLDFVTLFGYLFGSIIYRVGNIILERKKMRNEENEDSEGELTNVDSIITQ
Experimental: (§1) Site-directed mutagenesis of PfCRT^Dd2 was performed as described using the megaprimer method with overlap extension[21],[54]. The primer pairs used are listed in Supplementary Table 6. Please note that a codon-optimized and oocyte-adapted version of PfCRT^Dd2 was used[22] (Supplementary Fig. 16). The resulting DNA fragment was cloned into the SP64T expression vector and verified by sequencing.
(§2) Oocytes were obtained as described previously. Briefly, adult (>2 years old) female X. laevis frogs (NASCO) were anesthetized in a cooled solution of ethyl 3-amino benzoate methanesulfonate (0.1%, w/v), followed by a surgical removal of parts of the ovary. The ovary lobes were carefully dissected and small pieces of oocytes were incubated in Ca^2+-free ND96 buffer (96 mM NaCl, 2 mM KCl, 1 mM MgCl2 buffered with 5 mM HEPES/NaOH, pH 7.5) supplemented with collagenase D (0.1%, w/v; Roche), BSA (0.5%, w/v), and 9 mm Na2HPO4 at 18 °C for 14-16 h while gentle shaking. After incubation, the oocytes were carefully washed several times with ND96 buffer (96 mM NaCl, 2 mM KCl, 1.8 mM CaCl2, 1 mM MgCl2 buffered with 5 mM HEPES/NaOH, pH 7.5) supplemented with 100 mg l^−1 gentamycin). Defolliculated and healthy-looking stage V-VI oocytes were manually selected for RNA microinjection. The RNA was generated as following: The codon-optimized sequences of PfCRT variants were cloned into the pSP64T expression vector. After vector linearization using the restriction endonucleases BamHI or SalI (New England Biolabs), transcription was performed using the in vitro SP6 mMessage mMachine Kit (Ambion)[34]. The obtained RNA was kept at −80 °C and diluted with nuclease-free water to a concentration of 0.6 μg μl^−1. Precision-bore glass capillary tubes (3.5-inch glass capillaries; Drummond Scientific Co.) were pulled on a vertical puller (P-87 Flaming/Brown micropipette puller, Sutter Instrument Co.), graduated, and placed on a microinjector (Nanoject II Auto-Nanoliter Injector, Drummond Scientific Co.). 50 nl of nuclease-free water alone (control oocytes) or 50 nl of 0.6 μg μl^−1 RNA were injected under stereomicroscopic control. Injected oocytes were incubated for 46–72 h at 18 °C with twice-daily buffer changes before usage in experiments.
Drug uptake assays were performed as described previously[21],[22],[24],[34]. […] The direction of radio-labeled drug transport is here from the mostly acidic extracellular solution (pH 4.5 or 6.0, as indicated) into the oocyte cytosol (pH ∼ 7.2), which corresponds to the efflux of drug from the acidic digestive vacuole (pH 5.2) into the parasite cytoplasm (pH 7.2). The topology of PfCRT in the oolemma is such that both the N- and C-terminus face the extracellular milieu[3],[22]. In the parasite, the N- and C-terminus face the lumen of the digestive vacuole. […] For determination of the amount of drug uptake for each oocyte, the reaction medium was removed and the oocytes were washed three times with 2 ml of ice-cold ND96 buffer. Each oocyte was individually transferred to a scintillation vial containing 5% sodium dodecyl sulfate (200 μl) for lysis. […] Oocytes that were injected with water instead of RNA were analyzed in parallel, representing the uptake of a drug by diffusion and/or endogenous permeation pathways. […] The specific PfCRT-mediated uptake was determined by subtracting the corresponding background value measured in water-injected oocytes from that of PfCRT-expressing oocytes. […]

[2] = tested on: PfCRT variant E207W; assay: CQ uptake assay, oocytes expressing E207W; assay type: cell-based, Plasmodium falciparum
Experimental: as §1, §2
Drug uptake assays were performed as described previously[21],[22],[24],[34]. […] The direction of radio-labeled drug transport is here from the mostly acidic extracellular solution (pH 4.5 or 6.0, as indicated) into the oocyte cytosol (pH ∼ 7.2), which corresponds to the efflux of drug from the acidic digestive vacuole (pH 5.2) into the parasite cytoplasm (pH 7.2). The topology of PfCRT in the oolemma is such that both the N- and C-terminus face the extracellular milieu[3],[22]. In the parasite, the N- and C-terminus face the lumen of the digestive vacuole. […] For determination of the amount of drug uptake for each oocyte, the reaction medium was removed and the oocytes were washed three times with 2 ml of ice-cold ND96 buffer. Each oocyte was individually transferred to a scintillation vial containing 5% sodium dodecyl sulfate (200 μl) for lysis. […] Oocytes that were injected with water instead of RNA were analyzed in parallel, representing the uptake of a drug by diffusion and/or endogenous permeation pathways. The resulting value represents the “background“ level of drug accumulation in oocytes (in-depth discussion in[22]). The specific PfCRT-mediated uptake was determined by subtracting the corresponding background value measured in water-injected oocytes from that of PfCRT-expressing oocytes. In all cases, at least three separate experiments were performed on oocytes from different frogs (biological replicate), and for each condition in an experiment, measurements were made from 10 oocytes per treatment. For pH 5.5, 6.0, and 6.5, ND96 was buffered with 5 mM MES/Tris base.

[3] = E207W, 50 µM CQ, 1 h, mean ± SEM

CCN(CC)CCCC(C)Nc1ccnc2cc(Cl)ccc12 (centres unmarked) [CQ, chloroquine]
Activity at pH 4.5 ([1]; Y89A, 50 µM CQ, 1 h, mean ± SEM): 0.73 ± 0.05 pmol h-1 oocyte-1
R-value ([1]; Y89A, CQ transport at pH 4.5 / pH 6.0): 0.43 ± 0.06
Y89A transport activity pH 4.5 ([1]; pH 4.5, single replicates, Fig 1d left): 0.79 pmol oocyte-1 h-1 and 0.80 pmol oocyte-1 h-1 and 0.60 pmol oocyte-1 h-1
Y89A R-value ([1]; pH 4.5 vs pH 6.0, Fig 1d left): 0.47 and 0.40 and 0.37
Y89A transport activity pH 6.0 ([1]; pH 6.0, single replicates, Fig 1d left): 1.68 pmol oocyte-1 h-1 and 1.99 pmol oocyte-1 h-1 and 1.64 pmol oocyte-1 h-1
Activity at pH 4.5 [2, 3]: 2.40 ± 0.17 pmol h-1 oocyte-1
Activity at pH 6.0 [2, 3]: 3.18 ± 0.35 pmol h-1 oocyte-1
R-value ([2]; E207W, CQ transport at pH 4.5 / pH 6.0): 0.78 ± 0.06
E207W transport activity pH 4.5 ([2]; pH 4.5, individual replicates, Fig 6b): 2.68 pmol oocyte-1 h-1 and 2.94 pmol oocyte-1 h-1 and 1.91 pmol oocyte-1 h-1 and 1.82 pmol oocyte-1 h-1 and 2.34 pmol oocyte-1 h-1
E207W transport activity pH 6.0 ([2]; pH 6.0, individual replicates, Fig 6b): 2.46 pmol oocyte-1 h-1 and 4.37 pmol oocyte-1 h-1 and 2.52 pmol oocyte-1 h-1 and 2.14 pmol oocyte-1 h-1 and 3.58 pmol oocyte-1 h-1 and 4.02 pmol oocyte-1 h-1
E207W R-value ([2]; ratio of activity pH 4.5 / pH 6.0): 0.67 and 0.76 and 0.85 and 0.65
